In patent US7517885B2, “Substituted [4-(4-phenyl-piperazin-1-yl)-cyclohexyl]-urea compounds” (Janssen Pharmaceutica N.V., priority 2005, dated 2009):

Experiments:
[1] = biological target: T1, α1a-AR (Homo sapiens, UniProt P35348); test: α1-Adrenergic Receptor Binding Assay (125I-HEAT radio-ligand), α1a subtype; details: membranes of COS-7 cells transfected with α1a subtype; 125I-HEAT 50 pM; rt 1 hr
T1 construct: expressed in transfected cells; host or cells: COS-7 cells (membranes)
T1 sequence (P35348 1-455 isoform P35348-4): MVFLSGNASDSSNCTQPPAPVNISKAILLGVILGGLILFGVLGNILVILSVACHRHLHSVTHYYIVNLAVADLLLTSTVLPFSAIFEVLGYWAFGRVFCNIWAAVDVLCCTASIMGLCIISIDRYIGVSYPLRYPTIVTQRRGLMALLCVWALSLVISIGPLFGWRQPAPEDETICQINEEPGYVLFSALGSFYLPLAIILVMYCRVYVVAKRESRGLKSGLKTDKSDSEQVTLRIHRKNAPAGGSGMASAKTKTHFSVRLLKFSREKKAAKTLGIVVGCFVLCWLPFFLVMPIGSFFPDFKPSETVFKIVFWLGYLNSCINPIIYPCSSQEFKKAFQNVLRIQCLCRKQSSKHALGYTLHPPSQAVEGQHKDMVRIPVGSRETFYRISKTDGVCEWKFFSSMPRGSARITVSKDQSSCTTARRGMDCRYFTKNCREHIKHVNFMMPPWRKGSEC
Procedure: (§1) α1-Adrenergic Receptor Binding Assay
(§2) Preparation of COS Cell Membranes
(§3) Membranes were prepared from COS-7 cells (African Green monkey kidney SV40-transformed cells) that had been transfected with one of the three α1-AR subtypes (Genbank accession number for the α1a subtype: AF013261; Genbank accession number for the α1b subtype: NM000679; Genbank accession number for the α1d subtype: NM000678) using the following method: COS cells from ten 100 mm tissue culture plates were scraped into a 5 mL volume of TE (a mixture of 50 mM Tris-HCl, 5 mM EDTA, pH 7.4). […] The disrupted cells were centrifuged at 1000×g min at 4° C. Supernatants were centrifuged at 34,500×g for 20 min at 4° C. The membrane pellets were suspended in a 2 mL volume of TNE (a mixture of 50 mM Tris-HCl, 5 mM EDTA and 150 mM NaCl at pH 7.4). An aliquot of the membrane suspension was stored at −70° C. until use. The protein concentration was determined using the BioRad “DC” protein assay kit following membrane solubilization with Triton X-100.
(§4) Radio-Ligand Binding Assay
(§5) Triplicate determinations of radio-ligand binding in the presence of increasing concentrations of testing compound were made. The reagents were added to 96-well polypropylene plate wells. […] The plate was incubated at rt for 1 hr. The contents of the wells were filtered through a glass filter (type C) (GF/C) membrane Unifilter plate (Packard Instruments) using the Packard Filtermate cell harvester. The filter plates were dried in a vacuum oven for 30 min at 40° C. 25 μL Microscint 20 liquid scintillation fluid (Packard Instruments) was added to each well. The radioactive content was analyzed in the TopCount microplate scintillation counter (Packard Instruments).

[2] = biological target: T2, α1b-AR (Homo sapiens, UniProt P35368); test: α1-Adrenergic Receptor Binding Assay (125I-HEAT radio-ligand), α1b subtype; details: membranes of COS-7 cells transfected with α1b subtype; 125I-HEAT 50 pM; rt 1 hr
T2 construct: expressed in transfected cells; host or cells: COS-7 cells (membranes)
T2 sequence (P35368 1-520): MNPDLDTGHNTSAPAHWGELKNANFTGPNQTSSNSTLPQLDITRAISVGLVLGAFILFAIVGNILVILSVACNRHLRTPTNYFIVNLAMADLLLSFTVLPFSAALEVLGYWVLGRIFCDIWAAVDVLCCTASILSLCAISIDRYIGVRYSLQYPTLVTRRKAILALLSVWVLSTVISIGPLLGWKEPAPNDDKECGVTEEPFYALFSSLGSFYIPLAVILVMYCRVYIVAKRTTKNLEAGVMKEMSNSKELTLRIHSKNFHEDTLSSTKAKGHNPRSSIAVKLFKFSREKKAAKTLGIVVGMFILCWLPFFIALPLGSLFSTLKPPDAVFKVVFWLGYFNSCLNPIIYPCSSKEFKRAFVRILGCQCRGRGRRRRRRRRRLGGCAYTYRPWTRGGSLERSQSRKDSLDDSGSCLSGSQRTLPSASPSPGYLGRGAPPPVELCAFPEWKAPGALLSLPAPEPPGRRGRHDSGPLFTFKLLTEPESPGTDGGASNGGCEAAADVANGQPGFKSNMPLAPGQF
Procedure: as §1, §2, §3, §4, §5

[3] = biological target: T3, α1d-AR (Homo sapiens, UniProt P25100); test: α1-Adrenergic Receptor Binding Assay (125I-HEAT radio-ligand), α1d subtype; details: membranes of COS-7 cells transfected with α1d subtype; 125I-HEAT 50 pM; rt 1 hr
T3 construct: expressed in transfected cells; host or cells: COS-7 cells (membranes)
T3 sequence (P25100 1-572): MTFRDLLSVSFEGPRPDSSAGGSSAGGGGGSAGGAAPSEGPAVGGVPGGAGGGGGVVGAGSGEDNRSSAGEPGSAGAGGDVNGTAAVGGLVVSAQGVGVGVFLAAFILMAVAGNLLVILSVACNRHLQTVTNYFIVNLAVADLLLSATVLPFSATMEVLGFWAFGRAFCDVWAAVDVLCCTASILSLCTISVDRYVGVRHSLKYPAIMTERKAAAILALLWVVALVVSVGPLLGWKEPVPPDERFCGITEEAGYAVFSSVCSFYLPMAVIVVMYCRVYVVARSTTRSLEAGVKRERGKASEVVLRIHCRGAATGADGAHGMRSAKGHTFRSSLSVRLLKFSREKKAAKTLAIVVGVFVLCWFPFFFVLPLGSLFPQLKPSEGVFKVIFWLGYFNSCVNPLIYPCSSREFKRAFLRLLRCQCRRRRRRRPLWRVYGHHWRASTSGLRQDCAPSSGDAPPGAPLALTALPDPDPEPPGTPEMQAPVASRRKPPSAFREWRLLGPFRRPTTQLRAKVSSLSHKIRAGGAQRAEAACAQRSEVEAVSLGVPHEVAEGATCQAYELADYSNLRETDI
Procedure: as §1, §2, §3, §4, §5

[4] = test system: α1a and α1d subtypes over the α1b subtype; details: cited from earlier work

Structure (SMILES) | Ki [1] | Ki [2] | Ki [3] | selective for the α1a and α1d subtypes over the α1b subtype [4]
CC(C)Oc1ccccc1N1CCN([C@H]2CC[C@H](NC(=O)Nc3ccccc3Cl)CC2)CC1 [Cpd 10, 1-(2-chloro-phenyl)-r-3-{t-4-[4-(2-isopropoxy-phenyl)-piperazin-1-yl]-cyclohexyl}-urea] | 11.4 nM | 39 nM | 3 nM | –
CC(C)Oc1ccccc1N1CCN([C@H]2CC[C@@H](NC(=O)Nc3c(Cl)cc(Cl)cc3Cl)CC2)CC1 [Cpd 15, r-1-{c-4-[4-(2-isopropoxy-phenyl)-piperazin-1-yl]-cyclohexyl}-3-(2,4,6-trichloro-phenyl)-urea] | 51.2 nM | 483 nM | 25.3 nM | –
CC(C)Oc1ccccc1N1CCN([C@H]2CC[C@@H](NC(=O)Nc3cc(F)ccc3F)CC2)CC1 [Cpd 24, 1-(2,5-difluoro-phenyl)-r-3-{c-4-[4-(2-isopropoxy-phenyl)-piperazin-1-yl]-cyclohexyl}-urea] | 25.8 nM | 259 nM | 52.5 nM | –
CC(C)Oc1ccccc1N1CCN([C@H]2CC[C@H](NC(=O)Nc3cc(F)ccc3F)CC2)CC1 [Cpd 25, 1-(2,5-difluoro-phenyl)-r-3-{t-4-[4-(2-isopropoxy-phenyl)-piperazin-1-yl]-cyclohexyl}-urea] | 1.7 nM | 36.4 nM | 1.2 nM | –
CC(C)Oc1ccccc1N1CCN([C@H]2CC[C@@H](NC(=O)Nc3ccc(OC(F)(F)F)cc3)CC2)CC1 [Cpd 31, r-1-{c-4-[4-(2-isopropoxy-phenyl)-piperazin-1-yl]-cyclohexyl}-3-(4-trifluoromethoxy-phenyl)-urea] | 48 nM | 277 nM | 4.5 nM | –
COc1ccc(C)cc1NC(=O)N[C@H]1CC[C@@H](N2CCN(c3ccccc3OC(C)C)CC2)CC1 [Cpd 33, r-1-{c-4-[4-(2-isopropoxy-phenyl)-piperazin-1-yl]-cyclohexyl}-3-(2-methoxy-5-methyl-phenyl)-urea] | 37 nM | 168 nM | 6.5 nM | –
CCOc1ccccc1OCCN[C@H](C)Cc1ccc(OC)c(S(N)(=O)=O)c1 [Tamsulosin] | – | – | – | about 15 fold

More lines, in order of falling Ki [1], values ahead:

Ki [1] | Ki [2] | Ki [3] | Structure (SMILES) | selective for the α1a and α1d subtypes over the α1b subtype [4]
181 nM | 129 nM | 58 nM | CC(C)Oc1ccccc1N1CCN([C@H]2CC[C@H](NC(=O)Nc3ccc(OC(F)(F)F)cc3)CC2)CC1 [Cpd 32, r-1-{t-4-[4-(2-isopropoxy-phenyl)-piperazin-1-yl]-cyclohexyl}-3-(4-trifluoromethoxy-phenyl)-urea] | –
108 nM | 1050 nM | 44 nM | CC(C)Oc1ccccc1N1CCN([C@H]2CC[C@@H](NC(=O)Nc3cc(F)cc(F)c3)CC2)CC1 [Cpd 28, 1-(3,5-difluoro-phenyl)-r-3-{c-4-[4-(2-isopropoxy-phenyl)-piperazin-1-yl]-cyclohexyl}-urea] | –
73 nM | 493 nM | 28 nM | COc1ccc(NC(=O)N[C@H]2CC[C@@H](N3CCN(c4ccccc4OC(C)C)CC3)CC2)cc1Cl [Cpd 34, 1-(3-chloro-4-methoxy-phenyl)-r-3-{c-4-[4-(2-isopropoxy-phenyl)-piperazin-1-yl]-cyclohexyl}-urea] | –
23.4 nM | 153 nM | 21.6 nM | COc1ccc(NC(=O)N[C@H]2CC[C@H](N3CCN(c4ccccc4OC(C)C)CC3)CC2)c(C)c1 [Cpd 21, r-1-{t-4-[4-(2-isopropoxy-phenyl)-piperazin-1-yl]-cyclohexyl}-3-(4-methoxy-2-methyl-phenyl)-urea] | –
13 nM | 108 nM | 2.3 nM | COc1ccc(NC(=O)N[C@H]2CC[C@H](N3CCN(c4ccccc4OC(C)C)CC3)CC2)cc1Cl [Cpd 35, 1-(3-chloro-4-methoxy-phenyl)-r-3-{t-4-[4-(2-isopropoxy-phenyl)-piperazin-1-yl]-cyclohexyl}-urea] | –
6.4 nM | 112 nM | 3.6 nM | CC(C)Oc1ccccc1N1CCN([C@H]2CC[C@H](NC(=O)Nc3c(Cl)cc(Cl)cc3Cl)CC2)CC1 [Cpd 16, r-1-{t-4-[4-(2-isopropoxy-phenyl)-piperazin-1-yl]-cyclohexyl}-3-(2,4,6-trichloro-phenyl)-urea] | –
5.7 nM | 52 nM | 1 nM | CC(C)Oc1ccccc1N1CCN([C@H]2CC[C@H](NC(=O)Nc3cc(F)cc(F)c3)CC2)CC1 [Cpd 29, 1-(3,5-difluoro-phenyl)-r-3-{t-4-[4-(2-isopropoxy-phenyl)-piperazin-1-yl]-cyclohexyl}-urea] | –
